Remaining activity data for 15 compounds are collected here from patent US11912699B2, “Tau-protein targeting compounds and associated” (Arvinas Operations, Inc., priority 2019, dated 2024).

This test deals with T1, Tau P301L (Homo sapiens, UniProt P10636, P618L).
T1 construct: expressed in transfected cells
Briefly: In vitro tau degradation assay in CHOK1 Tau P301L cells (sarkosyl insoluble tau, WES). Type of test: cell-based. To be noted: CHO-K1; remaining tau protein in sarkosyl insoluble pellet; CHOK1 Tau P301L cells treated 48 hours with test compound at 1 μM, doxycycline removed for the last 24 hours; relative to DMSO doxycycline control; read-out: Tau Protein Degradation effect at 1 μM. Put shortly: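 Sarkosyl-insoluble pellet tau, measured by WES capillary immunoassay (Tau1 antibody), was scored against DMSO doxycycline control as ≤50% or >50% remaining. Cells were CHOK1 clone D1 expressing Tau P301L under doxycycline (1 μg/ml), given 1 μM compound for 48 h with doxycycline withdrawn during the last 24 h.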

Structures can show the parent of a compound that is named as a salt. Some results are limits rather than exact numbers.

T1 sequence (P10636 1-441 isoform P10636-8 P301L): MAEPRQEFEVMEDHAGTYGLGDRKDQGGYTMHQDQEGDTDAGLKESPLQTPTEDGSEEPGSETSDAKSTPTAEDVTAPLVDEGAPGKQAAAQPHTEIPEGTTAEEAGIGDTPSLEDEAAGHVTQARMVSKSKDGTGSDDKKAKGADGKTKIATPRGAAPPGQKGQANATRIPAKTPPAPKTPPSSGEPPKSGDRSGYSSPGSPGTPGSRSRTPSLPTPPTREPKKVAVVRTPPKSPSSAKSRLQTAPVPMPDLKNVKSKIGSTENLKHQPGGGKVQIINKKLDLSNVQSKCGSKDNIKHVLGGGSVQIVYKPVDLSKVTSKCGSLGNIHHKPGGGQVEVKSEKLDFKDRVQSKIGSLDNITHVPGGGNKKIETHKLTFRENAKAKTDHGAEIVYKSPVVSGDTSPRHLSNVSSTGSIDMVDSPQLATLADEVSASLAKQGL

Regarding `Cc1cnc(Nc2ccc3cnccc3c2)cc1N1CCC(CCN2CCN(c3ccc4c(c3)C(=O)N(C3CCC(=O)NC3=O)C4=O)CC2)CC1` (stereo not drawn) [Compound 447, 2-(2,6-dioxopiperidin-3-yl)-5-(4-(2-(1-(2-(isoquinolin-6-ylamino)-5-methylpyridin-4-yl)piperidin-4-yl)ethyl)piperazin-1-yl)isoindoline-1,3-dione], the remaining activity at 1 µM was < 50%.

For `O=C1CCC(N2C(=O)c3ccc(OCCCCCN4CCC(OC5CN(c6ccc(-c7ccn8c(n7)nc7ccccc78)cn6)C5)CC4)cc3C2=O)C(=O)N1` (stereo not drawn) [Compound 450, 2-(2,6-dioxo-3-piperidyl)-5-[5-[4-[1-(5-pyrimido[1,2-a]benzimidazol-2-yl-2-pyridyl)azetidin-3-yl]oxy-1-piperidyl]pentoxy]isoindoline-1,3-dione formate], the remaining activity at 1 µM is < 50%.

For the compound `N#Cc1cc(-c2ccc3c4cnccc4n(C(F)F)c3c2)cnc1N1CCC(CCN2CCN(c3ccc4c(c3)C(=O)N(C3CCC(=O)NC3=O)C4=O)CC2)CC1` (stereo not drawn) [Compound 454, 5-(5-(difluoromethyl)-5H-pyrido[4,3-b]indol-7-yl)-2-(4-(2-(4-(2-(2,6-dioxopiperidin-3-yl)-1,3-dioxoisoindolin-5-yl)piperazin-1-yl)ethyl)piperidin-1-yl)nicotinonitrile], the remaining activity at 1 µM was < 50%.

Turning to `Cn1c2ccncc2c2ccc(-c3ccc(OC4CC5(C4)CN(C(=O)CN4CCN(CC6CN(c7ccc8c(c7)C(=O)N(C7CCC(=O)NC7=O)C8=O)C6)CC4)C5)nc3)cc21` (stereo not drawn) [Compound 458, 2-(2,6-dioxopiperidin-3-yl)-5-(3-((4-(2-(6-((5-(5-methyl-5H-pyrido[4,3-b]indol-7-yl)pyridin-2-yl)oxy)-2-azaspiro [3.3]heptan-2-yl)-2-oxoethyl)piperazin-1-yl)methyl)azetidin-1-yl)isoindoline-1,3-dione], the remaining activity at 1 µM was > 50%.

As for `O=C1CCC(N2C(=O)c3ccc(OCCN4CC5(C4)CN(C[C@H]4C[C@H](OC6CCN(c7ccn8c(n7)nc7ccccc78)CC6)C4)C5)cc3C2=O)C(=O)N1` (stereo partly drawn) [Compound 460, 5-(2-(6-(((1r,3r)-3-((1-(benzo[4,5]imidazo[1,2-a]pyrimidin-2-yl)piperidin-4-yl)oxy)cyclobutyl)methyl)-2,6-diazaspiro[3.3]heptan-2-yl)ethoxy)-2-(2,6-dioxopiperidin-3-yl)isoindoline-1,3-dione], the remaining activity at 1 µM is > 50%.

In the case of `Cn1c2ccncc2c2ccc(-c3ccc(OC4CC5(C4)CN(C(=O)CN4CCC(OC6CN(c7ccc8c(c7)C(=O)N(C7CCC(=O)NC7=O)C8=O)C6)CC4)C5)nc3)cc21` (stereo not drawn) [Compound 462, 2-(2,6-dioxopiperidin-3-yl)-5-(3-((1-(2-(6-((5-(5-methyl-5H-pyrido[4,3-b]indol-7-yl)pyridin-2-yl)oxy)-2-azaspiro[3.3]heptan-2-yl)-2-oxoethyl)piperidin-4-yl)oxy)azetidin-1-yl)isoindoline-1,3-dione], the remaining activity at 1 µM is > 50%.

Consider `Cc1ccc(-c2cn3ccc(N(C)CCOCCOCCOc4ccc5c(c4)C(=O)N(C4CCC(=O)NC4=O)C5=O)cc3n2)cc1` (stereo not drawn) [Compound 463, 2-(2,6-dioxopiperidin-3-yl)-5-(2-(2-(2-(methyl(2-(p-tolyl)imidazo[1,2-a]pyridin-7-yl)amino)ethoxy)ethoxy)ethoxy)isoindoline-1,3-dione], for which the remaining activity at 1 µM is < 50%.

`Cn1c2ccncc2c2ccc(-c3ccc(OC4CC5(C4)CN(C(=O)CC4CCN(CC6CN(c7ccc8c(c7)C(=O)N(C7CCC(=O)NC7=O)C8=O)C6)CC4)C5)nc3)cc21` (stereo not drawn) [Compound 472, 2-(2,6-dioxopiperidin-3-yl)-5-(3-((4-(2-(6-((5-(5-methyl-5H-pyrido[4,3-b]indol-7-yl)pyridin-2-yl)oxy)-2-azaspiro[3.3]heptan-2-yl)-2-oxoethyl)piperidin-1-yl)methyl)azetidin-1-yl)isoindoline-1,3-dione]: the remaining activity at 1 µM is < 50%.

Regarding `O=C1CCC(N2C(=O)c3ccc(OCCN4CC5(C4)CN(C[C@H]4C[C@H](Oc6ccc(-c7ccn8c(n7)nc7ccccc78)cn6)C4)C5)cc3C2=O)C(=O)N1` (stereo partly drawn) [Compound 473, 5-(2-(6-(((1r,3r)-3-((5-(benzo[4,5]imidazo[1,2-a]pyrimidin-2-yl)pyridin-2-yl)oxy)cyclobutyl)methyl)-2,6-diazaspiro[3.3]heptan-2-yl)ethoxy)-2-(2,6-dioxopiperidin-3-yl)isoindoline-1,3-dione], the remaining activity at 1 µM is < 50%.

On to `N#Cc1cc(-c2ccc3c4cnccc4n(C(F)F)c3c2)cnc1N1CCC(CCN2CCN(c3ccc4c(c3)CN(C3CCC(=O)NC3=O)C4=O)CC2)CC1` (stereo not drawn) [Compound 475, 5-(5-(difluoromethyl)-5H-pyrido[4,3-b]indol-7-yl)-2-(4-(2-(4-(2-(2,6-dioxopiperidin-3-yl)-1-oxoisoindolin-5-yl)piperazin-1-yl)ethyl)piperidin-1-yl)nicotinonitrile], for which the remaining activity at 1 µM is > 50%.

Turning to `Cn1c2ccncc2c2ccc(-c3ccc(O[C@H]4C[C@H](CN5CCC(CCOc6ccc7c(c6)C(=O)N(C6CCC(=O)NC6=O)C7=O)CC5)C4)nc3)cc21` (stereo partly drawn) [Compound 478, 2-(2,6-dioxopiperidin-3-yl)-5-(2-(1-(((1r,3r)-3-((5-(5-methyl-5H-pyrido[4,3-b]indol-7-yl)pyridin-2-yl)oxy)cyclobutyl)methyl)piperidin-4-yl)ethoxy)isoindoline-1,3-dione], the remaining activity at 1 µM is > 50%.

Regarding `Nc1cccc2cnc(-n3ccc4cc(N5CCC(CCN6CCN(c7ccc8c(c7)C(=O)N(C7CCC(=O)NC7=O)C8=O)CC6)CC5)ncc43)cc12` (stereo not drawn) [Compound 480, 5-[4-(2-[1-[1-(5-aminoisoquinolin-3-yl)pyrrolo[2,3-c]pyridin-5-yl]piperidin-4-yl]ethyl)piperazin-1-yl]-2-(2,6-dioxopiperidin-3-yl)isoindole-1,3-dione], the remaining activity at 1 µM is > 50%.

As to `O=C1CCC(N2C(=O)c3ccc(OCCN4CCC(OC5CN(c6ncc(-c7ccn8c(n7)nc7ccccc78)cc6C(F)(F)F)C5)CC4)cc3C2=O)C(=O)N1` (stereo not drawn) [Compound 483, 5-(2-(4-((1-(5-(benzo[4,5]imidazo[1,2-a]pyrimidin-2-yl)-3-(trifluoromethyl)pyridin-2-yl)azetidin-3-yl)oxy)piperidin-1-yl)ethoxy)-2-(2,6-dioxopiperidin-3-yl)isoindoline-1,3-dione], the remaining activity at 1 µM is > 50%.

`Cn1c2ccncc2c2ccc(-c3ccc(O[C@H]4C[C@H](CN5CCC(CC6CCN(c7ccc8c(c7)C(=O)N(C7CCC(=O)NC7=O)C8=O)CC6)CC5)C4)nc3)cc21` (stereo partly drawn) [Compound 485, 2-(2,6-dioxopiperidin-3-yl)-5-(4-((1-(((1r,3r)-3-((5-(5-methyl-5H-pyrido[4,3-b]indol-7-yl)pyridin-2-yl)oxy)cyclobutyl)methyl)piperidin-4-yl)methyl)piperidin-1-yl)isoindoline-1,3-dione]: the remaining activity at 1 µM is < 50%.

As for `O=C1CCC(N2C(=O)c3ccc(N4CCN(CCC5CCN(c6ncc(-c7ccc8c9cnccc9n(C(F)F)c8c7)cc6C(F)(F)F)CC5)CC4)cc3C2=O)C(=O)N1` (stereo not drawn) [Compound 489, 5-[4-[2-[1-[5-[5-(difluoromethyl)pyrido[4,3-b]indol-7-yl]-3-(trifluoromethyl)-2-pyridyl]-4-piperidyl]ethyl]piperazin-1-yl]-2-(2,6-dioxo-3-piperidyl)isoindoline-1,3-dione trifluroacetate], the remaining activity at 1 µM is < 50%.
